Reference: ChEMBL document CHEMBL5291721, “A preclinical secondary pharmacology resource illuminates target-adverse drug reaction associations of marketed drugs” (Nat Commun, 2023)

Columns and labels:
[1] = molecular target: T1, Alpha-1A adrenergic receptor (Homo sapiens, UniProt P35348); format: functional, cell-based
T1 sequence (P35348 whole entry): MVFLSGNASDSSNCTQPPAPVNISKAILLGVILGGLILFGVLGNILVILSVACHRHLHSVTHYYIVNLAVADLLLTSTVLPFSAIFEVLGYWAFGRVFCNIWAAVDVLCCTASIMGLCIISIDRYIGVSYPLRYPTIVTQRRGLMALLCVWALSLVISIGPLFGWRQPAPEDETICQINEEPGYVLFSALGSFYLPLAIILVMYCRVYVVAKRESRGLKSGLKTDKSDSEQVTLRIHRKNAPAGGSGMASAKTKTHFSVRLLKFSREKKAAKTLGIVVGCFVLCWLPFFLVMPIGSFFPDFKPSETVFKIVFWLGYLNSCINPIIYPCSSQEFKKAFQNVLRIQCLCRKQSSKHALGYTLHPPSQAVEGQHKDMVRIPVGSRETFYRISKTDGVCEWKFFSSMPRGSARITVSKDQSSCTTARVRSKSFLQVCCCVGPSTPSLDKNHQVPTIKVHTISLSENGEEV

[2] = molecular target: Histamine H3 receptor (Homo sapiens, UniProt Q9Y5N1)
[3] = molecular target: Mu-type opioid receptor (Homo sapiens, UniProt P35372)
[4] = molecular target: Beta-2 adrenergic receptor (Homo sapiens, UniProt P07550); format: functional, cell-based
[5] = molecular target: T2, Progesterone receptor (Homo sapiens, UniProt P06401); format: functional
T2 sequence (P06401 whole entry): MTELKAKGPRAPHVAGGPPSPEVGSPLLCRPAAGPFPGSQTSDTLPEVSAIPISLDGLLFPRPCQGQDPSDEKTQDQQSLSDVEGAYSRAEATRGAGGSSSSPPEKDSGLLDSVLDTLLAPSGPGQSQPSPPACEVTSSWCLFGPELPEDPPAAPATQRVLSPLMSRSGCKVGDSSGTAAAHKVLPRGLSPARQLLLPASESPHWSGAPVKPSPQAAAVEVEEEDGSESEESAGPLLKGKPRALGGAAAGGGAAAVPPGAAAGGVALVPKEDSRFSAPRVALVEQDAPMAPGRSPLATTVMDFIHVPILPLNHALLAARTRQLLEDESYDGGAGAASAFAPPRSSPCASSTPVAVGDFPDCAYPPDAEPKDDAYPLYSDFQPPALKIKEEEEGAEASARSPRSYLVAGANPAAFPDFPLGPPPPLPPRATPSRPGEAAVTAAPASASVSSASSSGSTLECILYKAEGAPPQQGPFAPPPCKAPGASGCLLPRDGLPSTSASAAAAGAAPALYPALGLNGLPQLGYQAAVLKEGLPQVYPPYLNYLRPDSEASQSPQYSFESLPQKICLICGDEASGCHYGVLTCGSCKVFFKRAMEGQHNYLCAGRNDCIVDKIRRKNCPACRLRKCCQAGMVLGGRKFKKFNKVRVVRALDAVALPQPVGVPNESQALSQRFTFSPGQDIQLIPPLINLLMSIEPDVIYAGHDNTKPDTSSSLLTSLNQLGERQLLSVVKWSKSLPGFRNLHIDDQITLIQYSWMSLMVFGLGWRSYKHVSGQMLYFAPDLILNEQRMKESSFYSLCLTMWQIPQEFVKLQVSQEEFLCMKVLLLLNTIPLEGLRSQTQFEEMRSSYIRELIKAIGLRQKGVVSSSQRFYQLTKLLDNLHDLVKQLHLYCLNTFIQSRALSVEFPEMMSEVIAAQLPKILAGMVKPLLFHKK

[6] = molecular target: Cannabinoid receptor 1 (Homo sapiens, UniProt P21554); format: functional, cell-based
[7] = molecular target: T3, 5-hydroxytryptamine receptor 2B (Homo sapiens, UniProt P41595); format: functional, cell-based
[8] = molecular target: Histamine H2 receptor (Homo sapiens, UniProt P25021); format: functional, cell-based
[9] = molecular target: T1, Alpha-1A adrenergic receptor
[10] = molecular target: Acetylcholinesterase (Homo sapiens, UniProt P22303); format: functional
[11] = molecular target: T3, 5-hydroxytryptamine receptor 2B; format: functional, cell-based; remark: listed apart in the source
[12] = molecular target: Prostaglandin G/H synthase 1 (Homo sapiens, UniProt P23219); format: functional
[13] = molecular target: Sodium-dependent dopamine transporter (Homo sapiens, UniProt Q01959)
[14] = molecular target: T4, Thromboxane A2 receptor (Homo sapiens, UniProt P21731); format: functional, cell-based
T4 sequence (P21731 whole entry): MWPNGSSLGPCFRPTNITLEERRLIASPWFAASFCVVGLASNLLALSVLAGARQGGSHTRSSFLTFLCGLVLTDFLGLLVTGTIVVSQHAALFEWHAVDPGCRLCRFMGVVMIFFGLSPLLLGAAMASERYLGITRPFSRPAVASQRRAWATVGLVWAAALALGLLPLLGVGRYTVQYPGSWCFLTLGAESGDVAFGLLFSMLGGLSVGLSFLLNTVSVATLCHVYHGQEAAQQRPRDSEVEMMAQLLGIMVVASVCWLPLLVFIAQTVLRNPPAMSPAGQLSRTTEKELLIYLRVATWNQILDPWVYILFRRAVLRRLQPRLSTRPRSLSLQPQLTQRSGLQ

[15] = molecular target: T5, Estrogen receptor (Homo sapiens, UniProt P03372)
T5 sequence (P03372 whole entry): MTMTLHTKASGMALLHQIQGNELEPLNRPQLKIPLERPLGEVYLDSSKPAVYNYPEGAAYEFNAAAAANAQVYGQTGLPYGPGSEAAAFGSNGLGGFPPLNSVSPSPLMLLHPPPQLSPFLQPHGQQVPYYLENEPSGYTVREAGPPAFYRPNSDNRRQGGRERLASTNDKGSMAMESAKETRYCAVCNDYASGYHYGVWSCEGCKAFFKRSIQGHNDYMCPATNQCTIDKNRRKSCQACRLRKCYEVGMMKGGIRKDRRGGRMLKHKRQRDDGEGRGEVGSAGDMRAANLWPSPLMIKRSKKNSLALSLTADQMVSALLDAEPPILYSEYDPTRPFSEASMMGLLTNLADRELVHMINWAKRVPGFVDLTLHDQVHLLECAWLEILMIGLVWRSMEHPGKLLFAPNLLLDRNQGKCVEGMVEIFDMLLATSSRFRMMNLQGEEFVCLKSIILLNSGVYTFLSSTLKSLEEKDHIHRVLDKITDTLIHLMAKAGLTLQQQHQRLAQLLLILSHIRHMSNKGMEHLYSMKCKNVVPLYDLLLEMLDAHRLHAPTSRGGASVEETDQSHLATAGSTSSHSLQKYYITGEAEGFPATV
Further: assay procedure not described here.

T3 sequence (P41595 whole entry): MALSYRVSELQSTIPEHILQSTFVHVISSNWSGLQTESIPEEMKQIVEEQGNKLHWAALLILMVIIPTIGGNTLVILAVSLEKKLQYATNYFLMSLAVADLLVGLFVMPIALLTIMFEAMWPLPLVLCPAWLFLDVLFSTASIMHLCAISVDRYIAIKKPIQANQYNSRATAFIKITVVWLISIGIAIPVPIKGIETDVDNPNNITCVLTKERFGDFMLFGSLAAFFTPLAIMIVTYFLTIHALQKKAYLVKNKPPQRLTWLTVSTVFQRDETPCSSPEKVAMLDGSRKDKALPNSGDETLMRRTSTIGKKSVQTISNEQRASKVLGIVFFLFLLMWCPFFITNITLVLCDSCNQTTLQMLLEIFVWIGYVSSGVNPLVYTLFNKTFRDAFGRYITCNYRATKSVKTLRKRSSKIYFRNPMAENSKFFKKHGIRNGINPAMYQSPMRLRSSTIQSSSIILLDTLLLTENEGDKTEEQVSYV
Histamine H2 receptor, sequence (P25021 whole entry): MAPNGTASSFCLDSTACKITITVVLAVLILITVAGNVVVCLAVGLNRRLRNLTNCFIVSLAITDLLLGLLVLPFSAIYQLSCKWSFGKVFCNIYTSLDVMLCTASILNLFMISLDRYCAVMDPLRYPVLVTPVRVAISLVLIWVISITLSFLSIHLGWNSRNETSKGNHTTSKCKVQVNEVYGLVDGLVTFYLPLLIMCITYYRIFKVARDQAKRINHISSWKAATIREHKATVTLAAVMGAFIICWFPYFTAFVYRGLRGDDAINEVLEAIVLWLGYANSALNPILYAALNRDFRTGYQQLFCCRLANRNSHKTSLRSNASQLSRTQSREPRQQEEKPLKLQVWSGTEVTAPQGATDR
Beta-2 adrenergic receptor, sequence (P07550 whole entry): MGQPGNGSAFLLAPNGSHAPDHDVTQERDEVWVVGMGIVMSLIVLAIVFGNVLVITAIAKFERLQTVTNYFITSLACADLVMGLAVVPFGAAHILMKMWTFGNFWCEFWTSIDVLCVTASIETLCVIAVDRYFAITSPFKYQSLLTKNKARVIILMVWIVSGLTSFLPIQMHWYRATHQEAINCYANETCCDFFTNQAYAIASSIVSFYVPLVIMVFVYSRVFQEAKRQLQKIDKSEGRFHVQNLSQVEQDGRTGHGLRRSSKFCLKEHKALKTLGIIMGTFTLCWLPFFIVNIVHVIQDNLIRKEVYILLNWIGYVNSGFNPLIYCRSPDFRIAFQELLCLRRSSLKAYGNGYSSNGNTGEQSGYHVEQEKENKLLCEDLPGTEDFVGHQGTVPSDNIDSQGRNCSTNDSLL
Histamine H3 receptor, sequence (Q9Y5N1 whole entry): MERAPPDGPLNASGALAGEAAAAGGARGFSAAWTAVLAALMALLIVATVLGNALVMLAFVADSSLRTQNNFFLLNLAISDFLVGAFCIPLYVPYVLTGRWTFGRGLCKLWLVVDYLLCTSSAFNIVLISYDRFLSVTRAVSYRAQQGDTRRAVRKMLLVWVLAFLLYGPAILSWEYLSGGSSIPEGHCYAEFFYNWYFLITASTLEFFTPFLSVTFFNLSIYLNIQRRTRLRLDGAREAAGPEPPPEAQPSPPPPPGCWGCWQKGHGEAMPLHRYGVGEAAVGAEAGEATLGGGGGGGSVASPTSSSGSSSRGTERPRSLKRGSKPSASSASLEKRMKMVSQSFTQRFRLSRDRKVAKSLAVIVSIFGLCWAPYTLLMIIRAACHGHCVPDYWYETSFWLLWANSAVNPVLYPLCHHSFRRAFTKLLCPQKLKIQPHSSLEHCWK
Cannabinoid receptor 1, sequence (P21554 whole entry): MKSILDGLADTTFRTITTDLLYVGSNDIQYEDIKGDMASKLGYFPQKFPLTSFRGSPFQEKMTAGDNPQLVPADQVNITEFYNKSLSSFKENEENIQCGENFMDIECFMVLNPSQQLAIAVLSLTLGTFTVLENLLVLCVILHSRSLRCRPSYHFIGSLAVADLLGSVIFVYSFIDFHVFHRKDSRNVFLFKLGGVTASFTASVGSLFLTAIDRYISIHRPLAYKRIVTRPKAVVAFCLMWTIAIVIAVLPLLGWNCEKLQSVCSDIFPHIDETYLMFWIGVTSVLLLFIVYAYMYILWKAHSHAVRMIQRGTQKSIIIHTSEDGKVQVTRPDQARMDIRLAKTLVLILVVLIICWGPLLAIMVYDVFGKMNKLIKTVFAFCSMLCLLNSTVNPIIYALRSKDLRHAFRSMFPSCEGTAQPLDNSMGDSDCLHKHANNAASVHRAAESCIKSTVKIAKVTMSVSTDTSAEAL
Mu-type opioid receptor, sequence (P35372 whole entry): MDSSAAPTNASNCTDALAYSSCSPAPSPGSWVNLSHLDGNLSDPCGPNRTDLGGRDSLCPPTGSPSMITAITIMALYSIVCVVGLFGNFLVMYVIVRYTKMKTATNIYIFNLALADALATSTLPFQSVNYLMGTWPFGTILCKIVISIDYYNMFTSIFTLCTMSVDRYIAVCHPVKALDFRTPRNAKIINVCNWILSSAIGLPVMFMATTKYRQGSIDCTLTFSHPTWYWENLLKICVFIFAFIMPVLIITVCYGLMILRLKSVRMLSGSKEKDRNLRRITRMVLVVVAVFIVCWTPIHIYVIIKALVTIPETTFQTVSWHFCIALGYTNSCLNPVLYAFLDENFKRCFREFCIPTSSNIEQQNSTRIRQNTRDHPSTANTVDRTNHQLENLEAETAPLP
Acetylcholinesterase, sequence (P22303 whole entry): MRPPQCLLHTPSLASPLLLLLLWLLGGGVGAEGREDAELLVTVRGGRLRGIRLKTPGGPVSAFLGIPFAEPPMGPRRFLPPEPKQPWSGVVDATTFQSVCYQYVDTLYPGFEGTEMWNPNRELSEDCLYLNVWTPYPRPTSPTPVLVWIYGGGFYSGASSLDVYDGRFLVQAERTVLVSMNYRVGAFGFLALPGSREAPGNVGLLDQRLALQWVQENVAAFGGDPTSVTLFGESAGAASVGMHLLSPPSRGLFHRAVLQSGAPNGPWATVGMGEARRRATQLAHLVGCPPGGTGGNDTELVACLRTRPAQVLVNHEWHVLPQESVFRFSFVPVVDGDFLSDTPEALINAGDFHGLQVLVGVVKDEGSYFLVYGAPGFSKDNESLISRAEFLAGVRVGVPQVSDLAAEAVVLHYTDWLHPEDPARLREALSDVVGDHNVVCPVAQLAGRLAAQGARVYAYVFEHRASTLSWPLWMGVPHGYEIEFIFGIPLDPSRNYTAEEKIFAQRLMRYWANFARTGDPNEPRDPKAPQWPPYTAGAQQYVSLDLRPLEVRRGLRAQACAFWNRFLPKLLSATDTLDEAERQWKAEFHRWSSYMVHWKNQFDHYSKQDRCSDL
Sodium-dependent dopamine transporter, sequence (Q01959 whole entry): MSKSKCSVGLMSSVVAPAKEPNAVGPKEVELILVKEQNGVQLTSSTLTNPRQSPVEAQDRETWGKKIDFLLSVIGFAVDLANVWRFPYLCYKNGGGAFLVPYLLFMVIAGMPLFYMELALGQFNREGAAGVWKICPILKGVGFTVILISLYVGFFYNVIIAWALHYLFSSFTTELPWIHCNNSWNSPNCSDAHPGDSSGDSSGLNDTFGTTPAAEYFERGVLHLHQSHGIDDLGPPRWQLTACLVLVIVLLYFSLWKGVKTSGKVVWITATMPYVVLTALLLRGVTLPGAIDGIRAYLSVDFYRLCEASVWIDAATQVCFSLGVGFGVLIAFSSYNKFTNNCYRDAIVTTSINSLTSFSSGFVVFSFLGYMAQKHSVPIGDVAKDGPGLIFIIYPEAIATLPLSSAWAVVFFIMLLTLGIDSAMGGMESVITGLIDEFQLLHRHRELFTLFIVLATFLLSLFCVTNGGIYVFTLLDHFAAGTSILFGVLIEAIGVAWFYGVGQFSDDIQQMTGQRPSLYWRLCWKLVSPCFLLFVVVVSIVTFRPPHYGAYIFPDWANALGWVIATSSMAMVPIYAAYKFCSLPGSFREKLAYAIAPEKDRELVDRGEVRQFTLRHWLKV
Prostaglandin G/H synthase 1, sequence (P23219 whole entry): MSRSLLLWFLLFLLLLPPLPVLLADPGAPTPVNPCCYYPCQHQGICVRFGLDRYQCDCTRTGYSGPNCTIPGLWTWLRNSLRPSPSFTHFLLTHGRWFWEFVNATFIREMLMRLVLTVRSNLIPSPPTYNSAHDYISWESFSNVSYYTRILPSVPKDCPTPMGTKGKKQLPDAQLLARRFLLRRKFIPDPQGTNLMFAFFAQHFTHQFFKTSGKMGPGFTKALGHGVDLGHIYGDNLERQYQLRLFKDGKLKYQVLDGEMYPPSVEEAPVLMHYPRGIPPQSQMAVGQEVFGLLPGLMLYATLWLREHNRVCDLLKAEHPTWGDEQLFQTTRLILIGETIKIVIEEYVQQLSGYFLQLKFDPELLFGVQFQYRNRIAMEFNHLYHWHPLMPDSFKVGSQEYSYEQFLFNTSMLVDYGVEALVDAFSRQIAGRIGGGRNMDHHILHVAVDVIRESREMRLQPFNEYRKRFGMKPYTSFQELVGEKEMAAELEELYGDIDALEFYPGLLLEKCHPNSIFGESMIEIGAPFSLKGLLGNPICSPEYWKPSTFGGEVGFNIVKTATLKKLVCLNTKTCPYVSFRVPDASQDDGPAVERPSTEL

Row | Compound | AC50 [1] [µM] | AC50 [2] [µM] | AC50 [3] [µM] | AC50 [4] [µM] | AC50 [5] [µM] | AC50 [6] [µM] | AC50 [7] [µM] | AC50 [8] [µM] | AC50 [9] [µM] | AC50 [10] [µM] | AC50 [11] [µM] | AC50 [12] [µM] | AC50 [13] [µM] | AC50 [14] [µM] | AC50 [15] [µM]
1 | C[C@H]1CNCCc2ccc(Cl)cc21 [LORCASERIN] | > 30 | > 30 | > 30 | > 30 | > 30 | > 30 | – | – | – | – | – | – | – | – | –
2 | CNC1Cc2ccccc2N(C)c2ccccc21 (centres undefined) [METAPRAMINE] | > 30 | > 30 | > 30 | > 30 | > 30 | > 30 | – | – | – | – | – | – | – | – | –
3 | Cc1nc([N+](=O)[O-])cn1-c1ccc([N+](=O)[O-])cc1 [NITREFAZOLE] | > 30 | > 30 | – | > 30 | > 30 | > 30 | > 30 | > 30 | – | – | – | – | – | – | –
4 | CCCN1C[C@H](CSC)C[C@@H]2c3cccc4[nH]cc(c34)C[C@H]21 [PERGOLIDE] | 0.33 | > 30 | > 30 | > 30 | > 30 | > 30 | – | 0.95 | 1.78 | – | – | – | – | – | –
5 | C1CCC(C(CC2CCCCN2)C2CCCCC2)CC1 (centres undefined) [PERHEXILINE] | > 10 | > 30 | 16 | > 30 | > 30 | > 30 | – | – | – | – | – | – | – | – | –
6 | c1cnc(N2CCN(Cc3ccc4c(c3)OCO4)CC2)nc1 [PIRIBEDIL] | > 30 | > 30 | > 30 | > 30 | > 30 | > 30 | 2.3 | – | – | – | – | – | – | – | –
7 | COCCCN1CCC(NC(=O)c2cc(Cl)c(N)c3c2OCC3)CC1 [PRUCALOPRIDE] | > 30 | > 30 | > 30 | > 30 | > 30 | > 30 | > 30 | – | – | 26.7 | > 30 | > 30 | > 30 | > 30 | –
8 | Cc1c(C(=O)NN2CCCCC2)nn(-c2ccc(Cl)cc2Cl)c1-c1ccc(Cl)cc1 [RIMONABANT] | > 30 | > 30 | – | > 30 | > 30 | – | 14 | > 10 | > 10 | – | – | – | – | – | –
9 | N[C@@H]1[C@H]2CN(c3nc4c(cc3F)c(=O)c(C(=O)O)cn4-c3ccc(F)cc3F)C[C@@H]12 [TROVAFLOXACIN] | > 30 | > 30 | > 30 | > 30 | > 30 | > 30 | > 30 | – | – | – | – | – | – | – | –
10 | Cc1cn([C@H]2C[C@H](N=[N+]=[N-])[C@@H](CO)O2)c(=O)[nH]c1=O [ZIDOVUDINE] | > 30 | > 10 | > 30 | – | – | > 30 | > 10 | > 10 | > 10 | > 30 | > 30 | > 30 | > 30 | > 30 | > 30
